Data: patent publication US4613601A, “(1-benzodioxin-6-ylmethyl)-4-substituted piperazines having antipsychotic activity” (Adir, S.A.R.L., priority 1982, dated 1986)

Tests used:
[1] = test system: d-amphetamine-induced dopaminergic hyperactivity; assay: inhibition of d-amphetamine-induced motor phenomena in mice (activograph); format: in vivo
Method: the administration of d-amphetamine, at a dose of 1 to 3 mg/kg I.P. in mice, releases the supervention of motor phenomena registered using an activograph.

[2] = test system: conditioned avoidance response; assay: conditioned avoidance response inhibition in the rat (shuttle box avoidance); format: in vivo, male WISTAR rats
Method: The method used is based on the works of COURVOISIER et al., Arch. Int. Pharmacodyn. 92, 305-361, (1953), and of JANSSEN et al., Arzneim. Forsch. 15, 104-117, (1965).
The experiments are carried out on groups of 10 to 20 male WISTAR rats weighing between 300 g and 400 g. Each animal is submitted to two day-sessions per week, one after treatment carried out on the substance studied at a given dose, 30 minutes before the session, the other following the administration of a solute of NaCl (0.154M)--I.P. route in both cases. The compound of Example 1 has been administered in solution in sterile bi-distilled water, at doses of 6.25, 12.5, 25, 50 and 75 mg/kg. I.P.
Piribedil chosen as reference product has been administered at the same doses and by the same route. This method is used to show the anti-psychotic activity of a substance. It is known that anti-psychotic agents inhibit the conditioned shunning response, without modifying the escape response following an electric shock (Unconditioned response).

[3] = test system: pre-synaptic dopaminergic receptors; assay: hypokinesia in the normal animal, mice or rats; format: in vivo
[4] = test system: dopaminergic inhibitory auto-receptors; assay: motor depressant effects (hypokinesia) in mice; format: in vivo; conditions: all doses studied from 20 to 160 mg/kg I.P.
From the text: The motor depressant effects of the compound of Example 1 have been studied in mice.

[5] = test system: hypersensitive post-synaptic dopaminergic receptors; assay: rotations in rats with unilateral lesions of the nigro-neostriatal tract (Ungerstedt); format: in vivo, rat
Method: The central dopaminergic activity for the compounds of the present invention was determined, especially by measuring the rotations of the rat according to the method of Ungerstedt U., European Journal of Pharmacology, 5, (1968) 107-110. For the compounds of the present invention, administered at a dose of 25 mg/kg subcutaneously, up to 380 rotations were obtained in 45 minutes.
Experiments have also been carried out on rats with unilateral lesions of the nigro-neostriatal tract.
These lesions are produced by local micro-injection of 6-hydroxy dopamine into the black substance of the rat, according to U. Ungerstedt; Europ. J. Pharmacol. 5, 1968, 107-110 and Advances in Neurology, vol. 3, Raven Press., New York (1973).
This treatment leads to a degeneration of the dopaminergic neurons coming from the nigra-substantia, going towards the neostriatum.
Furthermore, following this denervation, the post-synaptic receptors situated above the pithed tract, i.e., above the synapse which leads to the pithed neuron, become hypersensitive to the pharmacological dopaminergic agents administered. This direct activation of hypersensitive dopaminergic receptors then produces the supervention of a motor rotation behaviour in treated rats.
When the left nigro-striatal tract is destroyed, the rotations occur towards the right, on the opposite side to the lesion. The experimental groups each contain from 5 to 6 animals.

[6] = test system: dopaminergic post-synaptic receptors of the striatum; assay: stereotyped movements in rats (Quinton and Halliwell scale); format: in vivo; conditions: for total stereotypy score in 3 hours: 6 observations; for total stereotypy score in 3 hours / total stereotypy score: groups of 8 rats; for stimulating activity on the dopaminergic post-synaptic receptors of the striatum: rats, from stereotypy scores
Method: The research for stereotyped movements, proof of the existence of a direct post-synaptic dopaminergic stimulating activity, has been carried out in rats using the scale described by R. M. QUINTON and H. HALLIWELL, Nature, 200, 1963, 178-179. The experiment lasts 3 hours, the animals are observed every 30 minutes. The groups are made up of 8 rats each, and the results are the total scores of the accumulated individual scores of the stereotypies observed during the experiment (6 observations).

[7] = test system: dopaminergic inhibitory auto-receptors; assay: electro-encephalogram / sleep in rats; format: in vivo

C1=COc2cc(CN3CCN(c4ncccn4)CC3)ccc2O1 [Example 1, 1-(benzodioxin-6-ylmethyl)-4-(pyrimidin-2-yl)piperazine]
antagonism of the effects of d-amphetamine ([1]; 20 mg/kg compound against 1 mg/kg I.P. d-amphetamine): antagonise | antagonism of the effects of d-amphetamine ([1]; 40 mg/kg compound against 3 mg/kg I.P. d-amphetamine): antagonise | inhibition of the motor phenomena due to d-amphetamine ([1]; joint administration with d-amphetamine 1 to 3 mg/kg I.P.): inhibition of the motor phenomena due to the amphetamine | Crossings, % over 20 ([2]; 6.25 mg/kg I.P.): -3% | Escape response, % in relation to control animals ([2]; 6.25 mg/kg I.P.): -14% | Escape response, % over 20 ([2]; 6.25 mg/kg I.P.): 1.5% | Escape response, Number over 20 ([2]; 6.25 mg/kg I.P.): 0.30 | Shunning response, % in relation to control animals ([2]; 6.25 mg/kg I.P.): +0.25% | Shunning response, % over 20 ([2]; 6.25 mg/kg I.P.): 98.5% | Shunning response, Number over 20 ([2]; 6.25 mg/kg I.P.): 19.7 | Crossings, Number over 20 ([2]; 6.25 mg/kg I.P., * = P < 0.05): 20.6 | Crossings, % over 20 ([2]; 12.50 mg/kg I.P.): -15% | Escape response, % in relation to control animals ([2]; 12.50 mg/kg I.P.): +71% | Escape response, % over 20 ([2]; 12.50 mg/kg I.P.): 3% | Escape response, Number over 20 ([2]; 12.50 mg/kg I.P.): 0.6 | Shunning response, % in relation to control animals ([2]; 12.50 mg/kg I.P.): -1% | Shunning response, % over 20 ([2]; 12.50 mg/kg I.P.): 97% | Shunning response, Number over 20 ([2]; 12.50 mg/kg I.P.): 19.4 | Crossings, Number over 20 ([2]; 12.50 mg/kg I.P., * = P < 0.05): 18.0 | Crossings, % over 20 ([2]; 25 mg/kg I.P.): -9% | Escape response, % in relation to control animals ([2]; 25 mg/kg I.P.): +71% | Escape response, % over 20 ([2]; 25 mg/kg I.P.): 3% | Escape response, Number over 20 ([2]; 25 mg/kg I.P.): 0.6 | Shunning response, % in relation to control animals ([2]; 25 mg/kg I.P.): -1% | Shunning response, % over 20 ([2]; 25 mg/kg I.P.): 97% | Shunning response, Number over 20 ([2]; 25 mg/kg I.P.): 19.4 | Crossings, Number over 20 ([2]; 25 mg/kg I.P., * = P < 0.05): 19.2 | Crossings, % change in relation to control animals ([2]; 50 mg/kg I.P.): +8% | Escape response, % in relation to control animals ([2]; 50 mg/kg I.P.): +814% | Escape response, % over 20 ([2]; 50 mg/kg I.P.): 16% | Shunning response, % in relation to control animals ([2]; 50 mg/kg I.P.): -15% | Shunning response, % over 20 ([2]; 50 mg/kg I.P.): 84% | diminution of the number of shunning responses ([2]; 50 mg/kg I.P.): 15% | increase of the escape responses ([2]; 50 mg/kg I.P.): 800% | Crossings, Number over 20 ([2]; 50 mg/kg I.P., * = P < 0.05): 22.9 | Escape response, Number over 20 ([2]; 50 mg/kg I.P., * = P < 0.05): 3.2 | Shunning response, Number over 20 ([2]; 50 mg/kg I.P., * = P < 0.05): 16.8 | Crossings, % change in relation to control animals ([2]; 75 mg/kg I.P.): +63% | Escape response, % in relation to control animals ([2]; 75 mg/kg I.P.): +533% | Escape response, % over 20 ([2]; 75 mg/kg I.P.): 9.5% | Shunning response, % in relation to control animals ([2]; 75 mg/kg I.P.): -8% | Shunning response, % over 20 ([2]; 75 mg/kg I.P.): 90.5% | diminution of the number of shunning responses ([2]; 75 mg/kg I.P.): 8% | increase of the escape responses ([2]; 75 mg/kg I.P.): 500% | increase of the number of spontaneous crossings ([2]; 75 mg/kg I.P.): 63% | mobility depressor, sedative, cataleptigenic effect ([2]; 75 mg/kg I.P.): neither a mobility depressor effect, nor sedative effect, nor cataleptigenic effect | Crossings, Number over 20 ([2]; 75 mg/kg I.P., * = P < 0.05): 25.4 | Escape response, Number over 20 ([2]; 75 mg/kg I.P., * = P < 0.05): 1.9 | Shunning response, Number over 20 ([2]; 75 mg/kg I.P., * = P < 0.05): 18.1 | conditioned and unconditioned responses ([2]; I.P.): reduces the conditioned responses without diminishing the unconditioned escape responses | hypokinesia in the normal animal [3]: only provokes an hypokinesia | hypokinesia in mice [4]: provokes in mice a hypokinesia at all the doses studied | average number of rotations in 45 minutes ([5]; 12.5 mg/kg S.C.): 182 rotations | average number of rotations in 45 minutes ([5]; 25 mg/kg S.C.): 380 rotations | average number of rotations in 45 minutes ([5]; 50 mg/kg P.O.): 543 rotations | rotations in the unilaterally pithed rat ([5]; right side, opposite side to the lesion): numerous rotations | stereotyped movements ([6]; 80 mg/kg I.P. or S.C.): very few stereotyped movements | total stereotypy score in 3 hours ([6]; 80 mg/kg I.P.): 52 | total stereotypy score in 3 hours ([6]; 80 mg/kg S.C.): 49 | stereotypy in normal rats ([6]; normal rats): practically no sterotypy | stimulating activity on the dopaminergic post-synaptic receptors of the striatum [6]: no important stimulating activity | central effects observed in the electro-encephalogram [7]: central depressant effects | total sleep (slow sleep and paradoxal sleep), words ([7]; 30 mg/kg I.P.): increase in total sleep | increase in total sleep ([7]; 30 mg/kg I.P., second hour following administration): 100%

c1cnc(N2CCN(Cc3ccc4c(c3)OCO4)CC2)nc1 [Piribedil, reference compound]
Crossings, % change in relation to control animals ([2]; 6.25 mg/kg I.P.): +50% | Escape response, % in relation to control animals ([2]; 6.25 mg/kg I.P.): +50% | Escape response, % over 20 ([2]; 6.25 mg/kg I.P.): 3% | Escape response, Number over 20 ([2]; 6.25 mg/kg I.P.): 0.6 | Shunning response, % in relation to control animals ([2]; 6.25 mg/kg I.P.): -1% | Shunning response, % over 20 ([2]; 6.25 mg/kg I.P.): 97% | Shunning response, Number over 20 ([2]; 6.25 mg/kg I.P.): 19.4 | Crossings, Number over 20 ([2]; 6.25 mg/kg I.P., * = P < 0.05): 29.5 | Crossings, % change in relation to control animals ([2]; 12.50 mg/kg I.P.): +47% | Escape response, % in relation to control animals ([2]; 12.50 mg/kg I.P.): 0% | Escape response, % over 20 ([2]; 12.50 mg/kg I.P.): 2% | Escape response, Number over 20 ([2]; 12.50 mg/kg I.P.): 0.4 | Shunning response, % in relation to control animals ([2]; 12.50 mg/kg I.P.): 0% | Shunning response, % over 20 ([2]; 12.50 mg/kg I.P.): 98% | Shunning response, Number over 20 ([2]; 12.50 mg/kg I.P.): 19.1 | Crossings, Number over 20 ([2]; 12.50 mg/kg I.P., * = P < 0.05): 28.9 | Crossings, % change in relation to control animals ([2]; 25 mg/kg I.P.): +148% | Escape response, % in relation to control animals ([2]; 25 mg/kg I.P.): +149% | Escape response, % over 20 ([2]; 25 mg/kg I.P.): 5% | Escape response, Number over 20 ([2]; 25 mg/kg I.P.): 1 | Shunning response, % in relation to control animals ([2]; 25 mg/kg I.P.): -3% | Shunning response, % over 20 ([2]; 25 mg/kg I.P.): 95% | Shunning response, Number over 20 ([2]; 25 mg/kg I.P.): 19 | Crossings, Number over 20 ([2]; 25 mg/kg I.P., * = P < 0.05): 48.9 | Crossings, % change in relation to control animals ([2]; 50 mg/kg I.P.): +118% | Escape response, % in relation to control animals ([2]; 50 mg/kg I.P.): +50% | Escape response, % over 20 ([2]; 50 mg/kg I.P.): 3% | Shunning response, % in relation to control animals ([2]; 50 mg/kg I.P.): -1% | Shunning response, % over 20 ([2]; 50 mg/kg I.P.): 97% | Crossings, Number over 20 ([2]; 50 mg/kg I.P., * = P < 0.05): 42.9 | Escape response, Number over 20 ([2]; 50 mg/kg I.P., * = P < 0.05): 0.6 | Shunning response, Number over 20 ([2]; 50 mg/kg I.P., * = P < 0.05): 19.4 | Crossings, % change in relation to control animals ([2]; 75 mg/kg I.P.): +115% | Escape response, % in relation to control animals ([2]; 75 mg/kg I.P.): +633% | Escape response, % over 20 ([2]; 75 mg/kg I.P.): 11% | Shunning response, % in relation to control animals ([2]; 75 mg/kg I.P.): -10% | Shunning response, % over 20 ([2]; 75 mg/kg I.P.): 89% | Crossings, Number over 20 ([2]; 75 mg/kg I.P., * = P < 0.05): 33.5 | Escape response, Number over 20 ([2]; 75 mg/kg I.P., * = P < 0.05): 2.2 | Shunning response, Number over 20 ([2]; 75 mg/kg I.P., * = P < 0.05): 17.8 | effect on the shunning responses ([2]; 6.25 to 75 mg/kg I.P.): no agonistic effect on the shunning responses | average number of rotations in 45 minutes ([5]; 50 mg/kg P.O.): 256 rotations | total stereotypy score ([6]; 20 mg/kg I.P.): 145 | total stereotypy score ([6]; 40 mg/kg I.P.): 246 | stimulating activity on the dopaminergic post-synaptic receptors of the striatum [6]: stimulates these receptors | reduction of total sleep ([7]; E.E.G., same dose (30 mg/kg I.P.)): 50%
